Data set [1] concerns P. aeruginosa (ATCC 27853). In words: Antibacterial microdilution MIC. The format is cell-based. The note with it: Pseudomonas aeruginosa, ATCC27853; D: P. aeruginosa (ATCC 27853), Gram-negative; read-out: MIC. The procedure: (§1) The antifungal and antibacterial activities of the synthesized compounds (5a–i) were evaluated in vitro against E. coli (ATCC 25922), S. marcescens (ATCC 8100), K. pneumoniae (ATCC 13883), P. aeruginosa (ATCC 27853), E. faecalis (ATCC 2942), B. subtilis, S. aureus (ATCC 29213), S. epidermidis (ATCC 12228), C. albicans (ATCC 24433), C. krusei (ATCC 6258), and C. parapsilosis (ATCC 22019). The final synthesized compounds were evaluated as antibacterial and antifungal references, in comparison to azithromycin, voriconazole, and fluconazole. Tables 1 and 2 provide a summary of the antimicrobial activity test results and the minimum inhibitory concentrations (MICs) of the compounds (5a–i).
(§2) The antimicrobial activity of the final compounds (5a–i) was screened against eight species of pathogenic bacteria and […] (E. coli (ATCC 25922), S. marcescens (ATCC 8100), K. pneumonia (ATCC 13883), P. aeruginosa (ATCC 27853), E. faecalis (ATCC 2942), B. subtilis (NRRL NRS 744), S. aureus (ATCC 29213), S. epidermidis (ATCC 12228), C. albicans (ATCC 24433), C. glabrata (ATCC 90030), C. krusei (ATCC 6258), and C. parapsilosis (ATCC 22 019)) according to the microdilution standard methods CLSI M07-A9 (2012) and NCCLS M27-A2 (2002), as described in the previous study.[25],[26]
In general terms: In broth dilution the organism is exposed to a series of concentrations in liquid medium.

Data set [2] has as its system B. subtilis. In words: Antibacterial microdilution MIC. The data set is classed as cell-based. The note with it: Bacillus subtilis; F: B. subtilis, Gram-positive; read-out: MIC. The procedure: as §1, §2
Data set [3] concerns S. aureus (ATCC 29213). In words: Antibacterial microdilution MIC. The format is cell-based. As to conditions: Staphylococcus aureus, ATCC29213; G: S. aureus (ATCC 29213), Gram-positive; read-out: MIC. The procedure:
as §1, §2

Data set [4] has as its system S. epidermidis (ATCC 12228). Nature of the data set: Antibacterial microdilution MIC. The data set is classed as cell-based. The note with it: Staphylococcus epidermidis, ATCC12228; H: S. epidermidis (ATCC 12228), Gram-positive; read-out: MIC. The procedure: as §1, §2
The test system of data set [5] is E. faecalis (ATCC 2942). Nature of the data set: Antibacterial microdilution MIC. The data set is classed as cell-based. As to conditions: Enterococcus faecalis, ATCC2942; E: E. faecalis (ATCC 2942), Gram-positive; read-out: MIC. The procedure: as §1, §2
The test system of data set [6] is S. marcescens (ATCC 8100). In words: Antibacterial microdilution MIC. The data set is classed as cell-based. As to conditions: Serratia marcescens, ATCC8100; B: S. marcescens (ATCC 8100), Gram-negative; read-out: MIC. The method, then: as §1, §2
The subject of data set [7] is E. coli (ATCC 25922). Nature of the data set: Antibacterial microdilution MIC. The data set is classed as cell-based. As to conditions: Escherichia coli, ATCC25922; A: E. coli (ATCC 25922), Gram-negative; read-out: MIC. The procedure:
as §1, §2

Data set [8] has as its system K. pneumoniae (ATCC 13883). In words: Antibacterial microdilution MIC. The format is cell-based. As to conditions: Klebsiella pneumoniae, ATCC13883; C: K. pneumoniae (ATCC 13883), Gram-negative; read-out: MIC. The method, then: as §1, §2
Data set [9] deals with C. parapsilosis (ATCC 22019). Nature of the data set: Antifungal microdilution MIC. The format is cell-based. As to conditions: Lodderomyces parapsilosis, ATCC22019; C. parapsilosis (ATCC 22019); read-out: MIC. The procedure:
as §1, §2

The subject of data set [10] is C. krusei (ATCC 6258). Nature of the data set: Antifungal microdilution MIC. The data set is classed as cell-based. The note with it: Pichia kudriavzevii, ATCC6258; C. krusei (ATCC 6258); read-out: MIC. The method, then: as §1, §2
Data set [11] concerns C. albicans (ATCC 24433). Nature of the data set: Antifungal microdilution MIC. The format is cell-based. The note with it: Candida albicans, ATCC24433; C. albicans (ATCC 24433); read-out: MIC. The procedure:
as §1, §2

The test system of data set [12] is L929 fibroblast cell line. Nature of the data set: Cytotoxicity MTT assay on healthy cells. The data set is classed as cell-based. The note with it: L929 healthy mouse fibroblast cells. The method, then: The effect of the compounds between 5a–i on the viability of the L929 cell line was analyzed by MTT assay. The MTT method was performed as previously described.[27]
Background: Tetrazolium assays rely on reduction of a dye to a coloured formazan, in cell work by metabolically active cells.

The structures appear in SMILES notation. In brackets after ≈: the same amount, converted by molar mass.

As usually defined, the melting point is the temperature of the solid-liquid transition. The MIC is the lowest concentration that inhibits growth of the organism. The term IC50 denotes the concentration that gives 50% inhibition. A high value points to weaker potency. Molecule `COc1ccc(Nc2nnc(-c3ccc(-c4nc5ccccc5[nH]4)cc3)s2)cc1` [Compound 5h, N-(4-Methoxyphenyl)-5-(4-(1H-Benzo[d]imidazole-2-Yl)phenyl)-1,3,4-Thiadiazole-2-Amine] had a melting point of 276.7 °C. Also, the MIC in [1] was found to be 31.2 µg/mL (≈ 78.2 µM). Moreover, the minimum inhibitory concentration (MIC) in data set [2] is 125 µg/mL (≈ 313 µM). In addition, the MIC in data set [3] amounted to 31.2 µg/mL (≈ 78.2 µM). Also, the minimum inhibitory concentration (MIC) in data set [4] turned out to be 31.2 µg/mL (≈ 78.2 µM). The minimum inhibitory concentration (MIC) in data set [5] was found to be 3.9 µg/mL (≈ 9.76 µM). Besides, in data set [6], the MIC amounted to 62.5 µg/mL (≈ 156 µM). In addition, the MIC in [7] came out at 31.2 µg/mL (≈ 78.2 µM). In addition, in data set [8], the MIC is 62.5 µg/mL (≈ 156 µM). The minimum inhibitory concentration (MIC) in data set [9] was 125 µg/mL (≈ 313 µM). Besides, the MIC in data set [10] is 125 µg/mL (≈ 313 µM). In [11], the MIC was 3.9 µg/mL (≈ 9.76 µM). Also, in data set [12], the 50% inhibitory concentration (IC50) came to 76 ± 9.4 µM.

For the origin of these results see article PMC11044166, “Synthesis, DFT Calculations, In Silico Studies, and Antimicrobial Evaluation of Benzimidazole-Thiadiazole Derivatives” (ACS Omega, 2024).
